Here are results for 10 molecules from patent US20250223607A1, “HPPD Variants and Methods of Use” (BASF Agricultural Solutions Seed US LLC, priority 2013, published 2025).

The target in experiment [1] is T1, Arabidopsis HPPD single point mutant SEQ ID No. 35 (Arabidopsis thaliana, UniProt P93836, E252S).
T1 construct: made in house; host or cells: E. coli BL21 (DE3)
Description: biochemical. An excerpt: (§1) In this content, pI50-value means the log value of the concentration of inhibitor necessary to inhibit 50% of the enzyme activity in molar concentration.

Experiment [2] has as its target T2, Arabidopsis HPPD single point mutant SEQ ID No. 40 (Arabidopsis thaliana, UniProt P93836, V269A).
T2 construct: made in house; host or cells: E. coli BL21 (DE3)
The experiment can be described thus: biochemical.
Description: as §1

Experiment [3] deals with T3, Arabidopsis HPPD single point mutant SEQ ID No. 42 (Arabidopsis thaliana, UniProt P93836, P280A).
T3 construct: made in house; host or cells: E. coli BL21 (DE3)
The experiment can be described thus: biochemical.
Description: as §1

Experiment [4] concerns the target T4, Arabidopsis HPPD single point mutant SEQ ID No. 44 (Arabidopsis thaliana, UniProt P93836, L368M).
T4 construct: made in house; host or cells: E. coli BL21 (DE3)
Description: biochemical.
Description: as §1

For experiment [5], the target named is T5, Arabidopsis HPPD single point mutant SEQ ID No. 46 (Arabidopsis thaliana, UniProt P93836, K421I).
T5 construct: made in house; host or cells: E. coli BL21 (DE3)
The experiment can be described thus: biochemical.
Description: as §1

Experiment [6] deals with T6, Arabidopsis HPPD single point mutant SEQ ID No. 48 (Arabidopsis thaliana, UniProt P93836, K421Q).
T6 construct: made in house; host or cells: E. coli BL21 (DE3)
Description: biochemical.
Description: as §1

Experiment [7] addresses T7, Arabidopsis HPPD single point mutant SEQ ID No. 50 (Arabidopsis thaliana, UniProt P93836, K421V).
T7 construct: made in house; host or cells: E. coli BL21 (DE3)
The experiment can be described thus: biochemical.
Description: as §1

Experiment [8] has as its target T8, HPPD enzyme “SEQ ID No. 32” (Arabidopsis thaliana, UniProt P93836).
T8 construct: made in house; host or cells: E. coli BL21 (DE3)
T8 sequence (P93836 with tags, fused parts or gaps): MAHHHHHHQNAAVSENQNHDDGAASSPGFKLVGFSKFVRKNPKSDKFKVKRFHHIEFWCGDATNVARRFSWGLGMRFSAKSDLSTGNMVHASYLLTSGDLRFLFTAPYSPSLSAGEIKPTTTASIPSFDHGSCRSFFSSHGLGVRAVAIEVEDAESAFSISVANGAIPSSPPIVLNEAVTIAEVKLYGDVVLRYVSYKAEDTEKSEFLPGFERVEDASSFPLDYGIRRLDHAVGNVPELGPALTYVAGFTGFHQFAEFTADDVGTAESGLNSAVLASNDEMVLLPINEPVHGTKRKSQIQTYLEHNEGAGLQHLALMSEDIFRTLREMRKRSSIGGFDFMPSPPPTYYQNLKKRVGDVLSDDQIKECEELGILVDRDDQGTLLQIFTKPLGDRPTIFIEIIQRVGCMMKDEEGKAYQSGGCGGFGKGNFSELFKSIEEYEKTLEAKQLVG
Description: HPLC assay of HPPD in vitro kinetic properties (Km, Vmax, kcat; Ki, Kon, Koff). In kind it is biochemical. The conditions noted are these: for kinetic parameter / sensitivity of Arabidopsis thaliana HPPD in presence of inhibitor: 2 mM HPP. On the procedure: Km, Vmax, and kcat values for different HPPD enzyme preparations and Ki, K1=Kon, and K−1=Koff for different HPPD inhibitors were determined using a HPLC assay for measurements of HPPD activity. […] All assays were started by the addition of HPPD enzyme to the assay mixture and stopped at a series of times between 0 and 240 s by addition of 200 μl of the reaction mixture to reaction assay tubes containing 20 μl 10% perchloric acid. Precipitated protein was pelleted by a 5 minute centrifugation at 10,000 g.
For Km and Vmax value determinations the initial rates of the HPPD reaction at different substrate concentrations were determined from plots of HGA formed versus time and fitted to the Michaelis-Menten equation for unireactant enzymes using the ID Business Solutions Ltd. (www.idbs.com) XLfit software suite.

For the next experiment, the system named is HPPD activity. Description: Colorimetric screening test for active HPPD enzymes (production of brown color). As to conditions: E. coli with pSE420-HPPDx, 5 mM L-Tyrosine, 16 hours at 37° C. In kind it is cell-based, Escherichia coli. On the procedure:
A YT-broth-type culture medium with 1% agarose, 5 mM L-Tyrosine and 42 mM Succinate, which contains the selection agent for the vector pSE420 (Invitrogen, Karlsruhe, Germany) is poured into deep well plates. E. coli culture in the exponentional growth phase which contains the vector pSE420-HPPDx (HPPDx means any gene coding for a putative HPPD enzyme/protein) is applied to each well.
A YT-broth-type culture medium with 1% agarose, 5 mM L-Tyrosine and 42 mM Succinate, which contains the selection agent for the vector pSE420 is poured into deep well plates. E. coli culture in the exponentional growth phase which contains the vector pSE420-HPPDx (any gene coding for a putative HPPD enzyme/protein) is applied to each well.
It can be concluded that the two HPPD mutants are not able to convert HPP into homogentisate. […] One can conclude that the amino acid positions 267 and 282 (referring to position in SEQ ID No. 2) are essential for HPPD activity.

Setting [9] is: substrate HPP varied 10-400 μM, HPPD SEQ ID No. 32, HPLC assay.

Bounds are passed on as bounds.

T3 sequence (P93836 other isoform, or with tags, fused parts or gaps P280A): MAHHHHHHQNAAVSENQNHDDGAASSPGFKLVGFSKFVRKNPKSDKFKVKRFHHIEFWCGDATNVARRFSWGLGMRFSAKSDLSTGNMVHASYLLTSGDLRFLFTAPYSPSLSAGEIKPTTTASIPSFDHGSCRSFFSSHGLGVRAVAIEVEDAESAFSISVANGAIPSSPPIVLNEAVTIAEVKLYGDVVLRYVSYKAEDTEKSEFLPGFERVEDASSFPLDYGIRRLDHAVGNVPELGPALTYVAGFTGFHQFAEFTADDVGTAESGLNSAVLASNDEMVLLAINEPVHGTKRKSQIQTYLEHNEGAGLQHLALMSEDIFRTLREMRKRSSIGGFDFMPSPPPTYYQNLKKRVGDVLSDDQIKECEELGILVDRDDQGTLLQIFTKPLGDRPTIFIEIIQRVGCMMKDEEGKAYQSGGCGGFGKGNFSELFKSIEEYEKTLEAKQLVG
T6 sequence (P93836 other isoform, or with tags, fused parts or gaps K421Q): as the sequence (P93836 other isoform, or with tags, fused parts or gaps P280A) above, with A285P, K426Q counted along it
T1 sequence (P93836 whole entry E252S): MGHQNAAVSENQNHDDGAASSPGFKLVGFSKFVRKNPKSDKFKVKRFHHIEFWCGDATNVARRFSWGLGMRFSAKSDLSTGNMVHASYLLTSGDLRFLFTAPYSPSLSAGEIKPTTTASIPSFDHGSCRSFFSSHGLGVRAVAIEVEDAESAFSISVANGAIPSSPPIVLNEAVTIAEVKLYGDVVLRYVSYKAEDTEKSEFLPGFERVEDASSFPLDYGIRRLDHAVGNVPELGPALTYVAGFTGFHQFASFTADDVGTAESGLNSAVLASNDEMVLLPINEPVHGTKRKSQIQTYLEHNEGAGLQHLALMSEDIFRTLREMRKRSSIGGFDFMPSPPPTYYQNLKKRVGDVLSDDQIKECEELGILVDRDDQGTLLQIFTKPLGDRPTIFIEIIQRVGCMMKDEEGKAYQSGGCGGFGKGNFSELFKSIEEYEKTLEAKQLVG
T7 sequence (P93836 other isoform, or with tags, fused parts or gaps K421V): as the sequence (P93836 other isoform, or with tags, fused parts or gaps P280A) above, with A285P, K426V counted along it
T2 sequence (P93836 other isoform, or with tags, fused parts or gaps V269A): as the sequence (P93836 other isoform, or with tags, fused parts or gaps P280A) above, with V274A, A285P counted along it
T5 sequence (P93836 other isoform, or with tags, fused parts or gaps K421I): as the sequence (P93836 other isoform, or with tags, fused parts or gaps P280A) above, with A285P, K426I counted along it
T4 sequence (P93836 other isoform, or with tags, fused parts or gaps L368M): as the sequence (P93836 other isoform, or with tags, fused parts or gaps P280A) above, with A285P, L373M counted along it

As to `Cc1ccc(C(=O)COc2c(C(=O)c3ccc(Cl)c(C)c3Cl)c(C)nn2C)cc1` [Benzofenap], the IC50 (as a rule, the concentration that gives 50% inhibition) in experiment [1] was 6.31 µM; in experiment [2], 6.31 µM; in [3] it was 6.31 µM; in experiment [4] it was below 2.51 µM; in experiment [5] it was 7.94 µM; in [6] it was below 2.51 µM. Also, the half-maximal inhibitory concentration (IC50) in experiment [7] was 6.31 µM.
In the case of `COCCOCc1nc(C(F)(F)F)ccc1C(=O)C1=C(O)C2CCC(C2)C1=O` (stereo not shown) [Bicyclopyrone, 4-hydroxy-3-[[2-[(2-methoxyethoxy)methyl]-6-(trifluoromethyl)-3-pyridinyl]carbonyl]bicyclo[3.2.1]oct-3-en-2-one], the IC50 in experiment [1] was 50.1 µM; in experiment [2], 50.1 µM; in experiment [3] it was 50.1 µM; in experiment [4] it was 31.6 µM; in experiment [5] it was 63.1 µM; in experiment [6], 20 µM. Moreover, it took 63.1 µM to reach half-maximal inhibition in [7] (IC50).
Turning to `CS(=O)(=O)c1cc(C(F)(F)F)ccc1C(=O)C(C#N)C(=O)C1CC1` (stereo not shown) [Diketonitrile, 2-cyano-3-cyclopropyl-1-(2-methylsulphonyl-4-trifluoromethylphenyl)-propane-1,3-dione], the “kinetic parameter / sensitivity of Arabidopsis thaliana HPPD in presence of inhibitor” value in [8] is on record as “sensitive in the similar range as the carrot HPPD”.
Take `O=C(O)C(=O)Cc1ccc(O)cc1` [HPP]: in experiment [8] (setting [9]), the Km (commonly the substrate concentration at which the rate is half of its maximum) stood at 6.3 µM and the Vmax is 1.2 µM.
Molecule `CS(=O)(=O)c1ccc(C(=O)C2C(=O)CCCC2=O)c([N+](=O)[O-])c1` [Mesotrione, 2-[4-(methylsulfonyl)-2-nitrobenzoyl]-1,3-cyclohexanedione] returned an IC50 in experiment [6] below 2.51 µM.
For `CS(=O)(=O)c1ccc(C(=O)C2C(=O)CCCC2=O)c(Cl)c1` [Sulcotrione, 2-[2-chloro-4-(methylsulfonyl)benzoyl]-1,3-cyclohexanedione], the IC50 in experiment [1] was 7.94 µM; in experiment [2], 10 µM; in experiment [3] it was 10 µM; in experiment [4] it was 6.31 µM; in experiment [5] it was 10 µM; in experiment [6], below 2.51 µM. The molecule also showed an IC50 in [7] of 7.94 µM.
Regarding `CS(=O)(=O)c1ccc(C(=O)C2C(=O)CCCC2=O)c(Cl)c1COCC(F)(F)F` [Tembotrione, 2-[2-chloro-4-(methylsulfonyl)-3-[(2,2,2,-tri-fluoroethoxy)methyl]benzoyl]-1,3-cyclo-hexanedione], in experiment [8], the “kinetic parameter / sensitivity of Arabidopsis thaliana HPPD in presence of inhibitor” value is reported as “comparable range”. Moreover, the 50% inhibitory concentration (IC50) in experiment [2], in experiment [3], in experiment [4], in experiment [6] and in experiment [7] was below 2.51 µM in each case.

B1: S267A: point mutant S267A of A. thaliana HPPD with N-terminal alanine and 6 histidines (protein)
chain: MAHHHHHHQNAAVSENQNHDDGAASSPGFKLVGFSKFVRKNPKSDKFKVKRFHHIEFWCGDATNVARRFSWGLGMRFSAKSDLSTGNMVHASYLLTSGDLRFLFTAPYSPSLSAGEIKPTTTASIPSFDHGSCRSFFSSHGLGVRAVAIEVEDAESAFSISVANGAIPSSPPIVLNEAVTIAEVKLYGDVVLRYVSYKAEDTEKSEFLPGFERVEDASSFPLDYGIRRLDHAVGNVPELGPALTYVAGFTGFHQFAEFTADDVGTAESGLNAAVLASNDEMVLLPINEPVHGTKRKSQIQTYLEHNEGAGLQHLALMSEDIFRTLREMRKRSSIGGFDFMPSPPPTYYQNLKKRVGDVLSDDQIKECEELGILVDRDDQGTLLQIFTKPLGDRPTIFIEIIQRVGCMMKDEEGKAYQSGGCGGFGKGNFSELFKSIEEYEKTLEAKQLVG
modifications: N-terminal alanine and His6 tag; encoded by SEQ ID No. 33; SITE 2 MISC_FEATURE - Ala; MISC_FEATURE - His Tag made of 6 His
notes: point mutant S267A of A. thaliana HPPD with N-terminal alanine and 6 histidines
For the molecule B1, the “HPPD activity (production of brown color)” value (from here on “HPPD activity”) in the experiment with HPPD activity is “inactive”.

B2: wild type HPPD: Arabidopsis thaliana wild type HPPD polypeptide with N-terminal alanine and 6 histidine amino acids (protein)
chain: MAHHHHHHQNAAVSENQNHDDGAASSPGFKLVGFSKFVRKNPKSDKFKVKRFHHIEFWCGDATNVARRFSWGLGMRFSAKSDLSTGNMVHASYLLTSGDLRFLFTAPYSPSLSAGEIKPTTTASIPSFDHGSCRSFFSSHGLGVRAVAIEVEDAESAFSISVANGAIPSSPPIVLNEAVTIAEVKLYGDVVLRYVSYKAEDTEKSEFLPGFERVEDASSFPLDYGIRRLDHAVGNVPELGPALTYVAGFTGFHQFAEFTADDVGTAESGLNSAVLASNDEMVLLPINEPVHGTKRKSQIQTYLEHNEGAGLQHLALMSEDIFRTLREMRKRSSIGGFDFMPSPPPTYYQNLKKRVGDVLSDDQIKECEELGILVDRDDQGTLLQIFTKPLGDRPTIFIEIIQRVGCMMKDEEGKAYQSGGCGGFGKGNFSELFKSIEEYEKTLEAKQLVG
modifications: misc_feature 1..1353 Nucleic acid sequence encoding Arabidopsis HPPD plus containingat the 5' end a nucleic acid encoding an Ala and 6 His aminoacids; misc_feature 4..6 sequence coding for an Ala; misc_feature 7..24 sequence coding for an His Tag containing 6 His
B2: the “HPPD activity” value in the experiment on HPPD activity is listed as “strong brown color”.

B3: N282A: point mutant N282A of A. thaliana HPPD with N-terminal alanine and 6 histidines (protein)
chain: MAHHHHHHQNAAVSENQNHDDGAASSPGFKLVGFSKFVRKNPKSDKFKVKRFHHIEFWCGDATNVARRFSWGLGMRFSAKSDLSTGNMVHASYLLTSGDLRFLFTAPYSPSLSAGEIKPTTTASIPSFDHGSCRSFFSSHGLGVRAVAIEVEDAESAFSISVANGAIPSSPPIVLNEAVTIAEVKLYGDVVLRYVSYKAEDTEKSEFLPGFERVEDASSFPLDYGIRRLDHAVGNVPELGPALTYVAGFTGFHQFAEFTADDVGTAESGLNSAVLASNDEMVLLPIAEPVHGTKRKSQIQTYLEHNEGAGLQHLALMSEDIFRTLREMRKRSSIGGFDFMPSPPPTYYQNLKKRVGDVLSDDQIKECEELGILVDRDDQGTLLQIFTKPLGDRPTIFIEIIQRVGCMMKDEEGKAYQSGGCGGFGKGNFSELFKSIEEYEKTLEAKQLVG
modifications: N-terminal alanine and His6 tag; encoded by SEQ ID No. 35; SITE 2 MISC_FEATURE - Ala; MISC_FEATURE - His Tag made of 6 His
notes: point mutant N282A of A. thaliana HPPD with N-terminal alanine and 6 histidines
Take B3: the “HPPD activity” value with HPPD activity is “inactive”.
